For this experiment, the target named is T1, Recombinant human JAK2 catalytic domain (Homo sapiens, UniProt O60674).
T1 construct: Recombinant human JAK2 catalytic domain (amino acids 808-1132; catalog number PV4210); GST; purchased Invitrogen PV4210
In words: JAK2 inhibition assay (polyGT substrate / Ulight-JAK1 peptide assay). To be noted: Illustrative Compounds of the invention (Table VII). It is filed as biochemical. Here is the method: Recombinant human JAK2 catalytic domain (amino acids 808-1132; catalog number PV4210) was purchased from Invitrogen. 0.025 mU of JAK2 is incubated with […] polyGT substrate (Sigma catalog number P0275) in kinase reaction buffer (5 mM MOPS pH 7.5, 9 mM MgAc, 0.3 mM EDTA, 0.06% Brij and 0.6 mM DTT, 1 μM non-radioactive ATP, 0.25 μCi ^33P-gamma-ATP (GE Healthcare, catalog number AH9968) final concentrations) with or without 5 μL containing test compound or vehicle (DMSO, 1% final concentration), in a total volume of 25 μL, in a polypropylene 96-well plate (Greiner, V-bottom). After 90 min at 30° C., reactions are stopped by adding of 25 μL/well of 150 mM phosphoric acid. All of the terminated kinase reaction is transferred to prewashed (75 mM phosphoric acid) 96 well filter plates (Perkin Elmer catalog number 6005177) using a cell harvester (Perkin Elmer). Plates are washed 6 times with 300 μL per well of a 75 mM phosphoric acid solution and the bottom of the plates is sealed. 40 μL/well of Microscint-20 is added, the top of the plates is sealed and readout is performed using the Topcount (Perkin Elmer). Kinase activity is calculated by subtracting counts per min (cpm) obtained in the presence of a positive control inhibitor (10 μM staurosporine) from cpm obtained in the presence of vehicle. The ability of a test compound to inhibit this activity is determined as:
[formula] • RFU test compound=RFU determined for sample with test compound present • RFU control=RFU determined for sample with positive control inhibitor • RFU vehicle=RFU determined in the presence of vehicle
Dose dilution series are prepared for the compounds enabling the testing of dose-response effects in the JAK2 assay and the calculation of the IC50 for each compound. Each compound is routinely tested at concentration of 20 μM followed by a 1/3 serial dilution, 8 points (20 μM-6.67 μM-2.22 μM-740 nM-247 nM-82 nM-27 nM-9 nM) in a final concentration of 1% DMSO. When potency of compound series increased, more dilutions are prepared and/or the top concentration is lowered (e.g. 5 μM, 1 μM).
Recombinant human JAK2 (catalytic domain, amino acids 866-1154; catalog number PV4210) was purchased from Invitrogen. 0.0125 mU of JAK2 was incubated with 25 nM Ulight-JAK1 (tyr1023) peptide (Perkin Elmer catalog number TRF0121) in kinase reaction buffer (25 mM HEPES pH7.0, 0.01% Triton X-100, 7.5 mM MgCl2, 2 mM DTT, 7.5 μM ATP) with or without 4 μL containing test compound or vehicle (DMSO, 1% final concentration), in a total volume of 20 μL, in a white 384 Opti plate (Perkin Elmer, catalog number 6007290). After 60 min at room temperature, reactions were stopped by adding 20 μL/well of detection mixture (1× detection buffer (Perkin Elmer, catalog number CR97-100C), 0.5 nM Europium-anti-phosphotyrosine (PT66) (Perkin Elmer, catalog number AD0068), 10 mM EDTA). Readout is performed using the Envision with excitation at 320 nm and measuring emission at 615 nm (Perkin Elmer). Kinase activity was calculated by subtracting relative fluorescence units (RFU) obtained in the presence of a positive control inhibitor (10 μM staurosporine) from RFU obtained in the presence of vehicle. The ability of a test compound to inhibit this activity was determined as: Percentage inhibition=((RFU determined for sample with test compound present−RFU determined for sample with positive control inhibitor) divided by (RFU determined in the presence of vehicle−RFU determined for sample with positive control inhibitor))*100.
Dose dilution series are prepared for compound enabling the testing of dose-response effects in the JAK2 assay and the calculation of the IC50 for the compound. Each compound is routinely tested at concentration of 20 μM followed by a 1/5 serial dilution, 10 points in a final concentration of 1% DMSO. When potency of compound series increases, more dilutions are prepared and/or the top concentration are lowered (e.g. 5 μM, 1 μM). […]

The record followed here is patent publication US10179771B2 (GALAPAGOS NV, priority 2014, dated 2019).

Structures are written as SMILES.

T1 sequence (O60674 808-1132): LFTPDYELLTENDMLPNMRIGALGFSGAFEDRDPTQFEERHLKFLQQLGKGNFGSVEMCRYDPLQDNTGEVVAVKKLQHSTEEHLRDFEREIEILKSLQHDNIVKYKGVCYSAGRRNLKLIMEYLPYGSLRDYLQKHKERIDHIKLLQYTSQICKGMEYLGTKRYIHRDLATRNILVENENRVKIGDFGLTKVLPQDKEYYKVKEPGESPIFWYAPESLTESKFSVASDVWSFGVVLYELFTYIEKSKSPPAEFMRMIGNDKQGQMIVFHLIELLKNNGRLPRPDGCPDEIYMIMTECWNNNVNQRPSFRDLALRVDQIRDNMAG

With `CCc1cc(C#N)ncc1Oc1cc(NC(=O)[C@H]2C[C@H]2F)c2ncn(C)c2c1` [Cpd 6, (1R,2R)-N-[6-[(6-cyano-4-ethyl-3-pyridyl)oxy]-1-methyl-benzimidazol-4-yl]-2-fluoro-cyclopropanecarboxamide], the IC50 lay within 0.0001 to 0.05 µM.
For `CCc1cc(S(C)(=O)=O)ncc1Oc1cc(NC(=O)C2CC2)c2ncn(C)c2c1` [Cpd 29, N-[6-[(4-ethyl-6-methylsulfonyl-3-pyridyl)oxy]-1-methyl-benzimidazol-4-yl]cyclopropanecarboxamide], the IC50 lay within 0.1 to 0.5 µM.
In the case of `CCS(=O)(=O)c1ccc(N(C)c2cc(NC(=O)[C@H]3C[C@H]3F)c3ncn(C)c3c2)c(C)c1` [Cpd 27, (1R,2R)-N-[6-(4-ethylsulfonyl-N,2-dimethyl-anilino)-1-methyl-benzimidazol-4-yl]-2-fluoro-cyclopropanecarboxamide], the IC50 fell in the range of 0.1 to 0.5 µM.
For `Cc1cc(S(C)(=O)=O)cc(F)c1N(C)c1cc(NC(=O)C2CC2)c2ncn(C)c2c1` [Cpd 19, N-[6-(2-fluoro-N,6-dimethyl-4-methylsulfonyl-anilino)-1-methyl-benzimidazol-4-yl]cyclopropanecarboxamide], the IC50 fell in the range of 0.0001 to 0.05 µM.
In the case of `Cc1cc(C#N)ncc1Oc1cc(N)c2ncn(C)c2c1` [Cpd 28, 5-(7-amino-3-methyl-benzimidazol-5-yl)oxy-4-methyl-pyridine-2-carbonitrile], the half-maximal inhibitory concentration (IC50) is above 0.5 µM.
`Cc1cc(C#N)ncc1Oc1cc(NC(=O)NC(C)C)c2ncn(C)c2c1` [Cpd 38, 1-[6-[(6-cyano-4-methyl-3-pyridyl)oxy]-1-methyl-benzimidazol-4-yl]-3-isopropyl-urea]: the 50% inhibitory concentration (IC50) is 0.1 to 0.5 µM.
On to `CCc1cc(C(N)=O)ncc1N(C)c1cc(NC(=O)C2CC2)c2ncn(C)c2c1` [Cpd 24, 5-((4-(cyclopropanecarboxamido)-1-methyl-1H-benzo[d]imidazol-6-yl)(methyl)amino)-4-ethylpicolinamide], for which the half-maximal inhibitory concentration (IC50) lay in the range of 0.0001 to 0.05 µM.
`Cc1cnc(C#N)c(F)c1N(C)c1cc(NC(=O)[C@H]2C[C@H]2F)c2ncn(C)c2c1` [Cpd 22, (1R,2R)-N-[6-[(2-cyano-3-fluoro-5-methyl-4-pyridyl)-methyl-amino]-1-methyl-benzimidazol-4-yl]-2-fluoro-cyclopropanecarboxamide]: the IC50 was in the range of 0.0001 to 0.05 µM.
Consider `Cc1cc(C#N)ncc1Oc1cc(NC(=O)C2CC2)c2ncn(C)c2c1` [Cpd 23, N-[6-[(6-cyano-4-methyl-3-pyridyl)oxy]-1-methyl-benzimidazol-4-yl]cyclopropanecarboxamide], for which the IC50 lay within 0.05 to 0.1 µM.
In the case of `CCc1cc(S(C)(=O)=O)ncc1N(C)c1cc(NC(=O)C2CC2)c2ncn(C)c2c1` [Cpd 18, N-[6-[(4-ethyl-6-methylsulfonyl-3-pyridyl)-methyl-amino]-1-methyl-benzimidazol-4-yl]cyclopropanecarboxamide], the 50% inhibitory concentration (IC50) lay within 0.0001 to 0.05 µM.
In the case of `Cc1cc(C(N)=O)ncc1Oc1cc(NC(=O)[C@H]2C[C@H]2F)c2ncn(C)c2c1` [Cpd 32, 5-[7-[[(1R,2R)-2-fluorocyclopropanecarbonyl]amino]-3-methyl-benzimidazol-5-yl]oxy-4-methyl-pyridine-2-carboxamide], the IC50 lay in the range of 0.05 to 0.1 µM.
As for `CCc1cc(C#N)ncc1N(C)c1cc(NC(=O)OC)c2ncn(C)c2c1` [Cpd 4, methyl 6-((6-cyano-4-ethylpyridin-3-yl)(methyl)amino)-1-methyl-1H-benzo[d]imidazol-4-ylcarbamate], the IC50 was 0.0001 to 0.05 µM.
In the case of `CCc1cc(C#N)ccc1Oc1cc(NC(=O)[C@H]2C[C@H]2F)c2ncn(C)c2c1` [Cpd 10, (1R,2R)-N-[6-(4-cyano-2-ethyl-phenoxy)-1-methyl-benzimidazol-4-yl]-2-fluoro-cyclopropanecarboxamide], the half-inhibitory concentration (IC50) lay in the range of 0.0001 to 0.05 µM.
In the case of `CN(c1cc(NC(=O)[C@H]2C[C@H]2F)c2ncn(C)c2c1)c1ccc(C#N)nc1F` [Cpd 14, (1R,2R)-N-[6-[(6-cyano-2-fluoro-3-pyridyl)-methyl-amino]-1-methyl-benzimidazol-4-yl]-2-fluoro-cyclopropanecarboxamide], the IC50 was 0.05 to 0.1 µM.
With `CCc1cc(C#N)cc(F)c1Nc1cc(NC(=O)C2CC2)c2ncn(C)c2c1` [Cpd 2, N-(6-(4-cyano-2-ethyl-6-fluorophenylamino)-1-methyl-1H-benzo[d]imidazol-4-yl)cyclopropanecarboxamide], the IC50 fell in the range of 0.0001 to 0.05 µM.
Under `Cc1cc(S(C)(=O)=O)cc(F)c1N(C)c1cc(NC(=O)[C@H]2C[C@H]2F)c2ncn(C)c2c1` [Cpd 16, (1R,2R)-2-fluoro-N-[6-(2-fluoro-N,6-dimethyl-4-methylsulfonyl-anilino)-1-methyl-benzimidazol-4-yl]cyclopropanecarboxamide] stands 0.0001 to 0.05 µM; under `CN(c1cc(NC(=O)[C@H]2C[C@H]2F)c2ncn(C)c2c1)c1c(F)cc(C#N)cc1Cl` [Cpd 11, (1R,2R)-N-[6-(2-chloro-4-cyano-6-fluoro-N-methyl-anilino)-1-methyl-benzimidazol-4-yl]-2-fluoro-cyclopropanecarboxamide], 0.0001 to 0.05 µM; under `CN(c1cc(NC(=O)[C@H]2C[C@H]2F)c2ncn(C)c2c1)c1ccc(F)nc1F` [Cpd 13, (1R,2R)-N-[6-[(2,6-difluoro-3-pyridyl)-methyl-amino]-1-methyl-benzimidazol-4-yl]-2-fluoro-cyclopropanecarboxamide], 0.1 to 0.5 µM.
For the compound `CCc1cc(C#N)ncc1N(C)c1cc(NC(=O)[C@H]2C[C@H]2F)c2ncn(C)c2c1` [Cpd 8, (1R,2R)-N-(6-((6-cyano-4-ethylpyridin-3-yl)(methyl)amino)-1-methyl-1H-benzo[d]imidazol-4-yl)-2-fluorocyclopropanecarboxamide], the IC50 fell in the range of 0.0001 to 0.05 µM.
Under `Cc1cc(C#N)ncc1Oc1cc(N(C)C)c2ncn(C)c2c1` [Cpd 35, 5-[7-(dimethylamino)-3-methyl-benzimidazol-5-yl]oxy-4-methyl-pyridine-2-carbonitrile] stands above 0.5 µM.
For `CCc1cc(C#N)ncc1N(C)c1cc(NC(=O)C2CC2)c2ncn(C)c2c1` [Cpd 1, N-(6-((6-cyano-4-ethylpyridin-3-yl)(methyl)amino)-1-methyl-1H-benzo[d]imidazol-4-yl)cyclopropanecarboxamide], the IC50 is 0.0001 to 0.05 µM.
`Cc1cc(F)ncc1N(C)c1cc(NC(=O)[C@H]2C[C@H]2F)c2ncn(C)c2c1` [Cpd 12, (1R,2R)-2-fluoro-N-[6-[(6-fluoro-4-methyl-3-pyridyl)-methyl-amino]-1-methyl-benzimidazol-4-yl]cyclopropanecarboxamide]: the IC50 was 0.05 to 0.1 µM.
Next, `Cc1cc(C#N)ncc1Oc1cc(NC(=O)N2CCOCC2)c2ncn(C)c2c1` [Cpd 37, N-[6-[(6-cyano-4-methyl-3-pyridyl)oxy]-1-methyl-benzimidazol-4-yl]morpholine-4-carboxamide]: above 0.5 µM; `CCc1cc(C#N)cc(F)c1N(C)c1cc(NC(=O)OC)c2ncn(C)c2c1` [Cpd 5, methyl 6-((4-cyano-2-ethyl-6-fluorophenyl)(methyl)amino)-1-methyl-1H-benzo[d]imidazol-4-ylcarbamate]: 0.0001 to 0.05 µM.
Take `CN(c1cc(NC(=O)[C@H]2C[C@H]2F)c2ncn(C)c2c1)c1ccc(S(C)(=O)=O)cc1F` [Cpd 17, (1R,2R)-2-fluoro-N-[6-(2-fluoro-N-methyl-4-methylsulfonyl-anilino)-1-methyl-benzimidazol-4-yl]cyclopropanecarboxamide]: the IC50 was above 0.5 µM.

The term IC50 denotes the concentration at which inhibition is half-maximal.
